This data set is described as follows: Human intestinal absorption in po dosed human. As to conditions: in vivo.

The compound `CCCc1nc2c(C)cc(-c3nc4ccccc4n3C)cc2n1Cc1ccc(-c2ccccc2C(=O)O)cc1` registered a Fa of 90%.
`N[C@H](Cc1ccccc1)C(=O)N1CCC[C@H]1C(=O)O` had a Fa of 100%.
For `CNS(=O)(=O)Cc1ccc2[nH]cc(CCN(C)C)c2c1`, the Fa amounted to 57%.
`CC1=C(CC(=O)O)c2cc(F)ccc2/C1=C\c1ccc([S+](C)[O-])cc1` (stereo not given) came in with a Fa of 90%.
With `COc1ccccc1N1CCN(CCCNc2cc(=O)n(C)c(=O)n2C)CC1` the figure was 78%.
With `Cc1cccc(C)c1NC(=O)NCCCNC(C)C` the figure was 71%; with `CCOC(=O)[C@H](CCc1ccccc1)N[C@@H](C)C(=O)N1CCC[C@H]1C(=O)O`, 66%.
As to `COc1ccc(CCN(C)CCCC(C#N)(c2ccc(OC)c(OC)c2)C(C)C)cc1OC` (stereo not given), the Fa turned out to be 97%.
As for `CCCC(=O)Nc1ccc(OCC(O)CNC(C)C)c(C(C)=O)c1` (stereo not given) [ACEBUTOLOL], the Fa is 80%.
In turn, `CC(=O)Nc1ccc(O)cc1` [ACETAMINOPHEN] had a Fa of 80%.
To `Cc1ccc(/C(=C\CN2CCCC2)c2cccc(/C=C/C(=O)O)n2)cc1` [ACRIVASTINE] belongs 88%.
`Nc1nc2c(ncn2COCCO)c(=O)[nH]1` [ACYCLOVIR] yielded a Fa of 23%.
`Nc1ncnc2c1ncn2CCOCP(=O)(O)O` [ADEFOVIR]: the Fa is 16%.
Take `Cc1nnc2n1-c1ccc(Cl)cc1C(c1ccccc1)=NC2` [ALPRAZOLAM]: the Fa was determined as 90%.
Take `N=C(N)NC(=O)c1nc(Cl)c(N)nc1N` [AMILORIDE]: the Fa is 50%.
With `O=C1O[C@H]([C@@H](O)CO)C(O)=C1O` [ASCORBIC ACID] the figure was 35%.
`CC(=O)Oc1ccccc1C(=O)O` [ASPIRIN] showed a Fa of 82%.
`NS(=O)(=O)c1cc(-c2nnn[nH]2)c(NCc2cccs2)cc1Cl` [AZOSEMIDE] showed a Fa of 10%.
With `C[C@H]1[C@H](NC(=O)/C(=N\OC(C)(C)C(=O)O)c2csc(N)n2)C(=O)N1S(=O)(=O)O` [AZTREONAM] the figure was 1%.
Compound `CC(C)NCC(O)COc1ccc(CCOCC2CC2)cc1` (stereo not given) [BETAXOLOL] had a Fa of 90%.
To `O=C1CN=C(c2ccccn2)c2cc(Br)ccc2N1` [BROMAZEPAM] belongs 84%; to `Cn1c(=O)c2c(ncn2C)n(C)c1=O` [CAFFEINE], 100%; to `CN(C)C(=O)OC1N=C(c2ccccc2)c2cc(Cl)ccc2N(C)C1=O` (stereo not given) [CAMAZEPAM], 100%.
In turn, `C[C@H](CS)C(=O)N1CCC[C@H]1C(=O)O` [CAPTOPRIL] registered a Fa of 84%.
As to `CC1(C)S[C@@H]2[C@H](NC(=O)C(C(=O)Oc3ccccc3)c3ccccc3)C(=O)N2[C@H]1C(=O)O` (stereo not given in full) [CARBENICILLIN PHENYL], the Fa turned out to be 99%.
With `CC1=C(C(=O)O)N2C(=O)[C@@H](NC(=O)[C@H](N)c3ccc(O)cc3)[C@H]2SC1` [CEFADROXIL], the Fa stood at 100%.
To `N[C@@H](C(=O)N[C@@H]1C(=O)N2C(C(=O)O)=C(CSc3c[nH]nn3)CS[C@H]12)c1ccc(O)cc1` [CEFATRIZINE] belongs 75%; to `CO/N=C(\C(=O)N[C@@H]1C(=O)N2C(C(=O)O)=CCS[C@H]12)c1csc(N)n1` [CEFTIZOXIME], 72%; to `CO/N=C(\C(=O)N[C@@H]1C(=O)N2C(C(=O)OC(C)OC(C)=O)=C(COC(N)=O)CS[C@H]12)c1ccco1` (stereo not given in full) [CEFUROXIME AXETIL], 44%.
Compound `O=C(N[C@H](CO)[C@H](O)c1ccc([N+](=O)[O-])cc1)C(Cl)Cl` [CHLORAMPHENICOL] registered a Fa of 90%.
In the case of `ClC(Cl)Cl` [CHLOROFORM], the Fa was 100%.
With `CN/C(=N/CCSCc1nc[nH]c1C)NC#N` [CIMETIDINE] the figure was 64%.
To `COc1cc(N)c(Cl)cc1C(=O)NC1CCN(CCCOc2ccc(F)cc2)CC1OC` (stereo not given) [CISAPRIDE] belongs 100%; to `CCOC(=O)C(C)(C)Oc1ccc(Cl)cc1` [CLOFIBRATE], 97%; to `Clc1cccc(Cl)c1N=C1NCCN1` [CLONIDINE], 95%.
